Laboratory results published in patent US4910225A, “Locally administrable therapeutic composition for inflammatory disease” (Senju Pharmaceutical Co., Ltd., priority 1988, dated 1990).

Assays:
[1] = Stability with polyvinyl pyrrolidone and sodium sulfite (Experimental Example 6); assay type: physicochemical; conditions: solution in which polyvinyl pyrrolidone and sodium sulfite coexist
[2] = tested on: experimental ophthalmitis induced by bovine serum albumin in white rabbits (ophthalmitis II); test: Ophthalmitis II: protein, white blood cell count and prostaglandins in anterior chamber aqueous humor; assay type: in vivo; conditions: for Prostaglandin in anterior chamber aqueous humor: less than the assay limit; for White Blood Cell count in anterior chamber aqueous humor: mean ± SE
Experimental: (§1) Seventeen male white rabbits weighing about 2 kg were used. They were fed with 80 g of Labo RG-RO (Nippon Agricultural Co., Ltd.) daily and had free access to tap water.
(§2) After 28 days when ophthalmitis I had nearly recovered, 2.5% BSA solution was administered in a dose of 25 mg/ml/kg into the auricular vein to cause ophthalmitis (ophthalmitis II). The severity of ophthalmitis was rated according to the rating scale^(1) of Yamauchi et al., based on the Draize method in which an increased weight given to the internal segment of the eye. Observation was made with a frequency of once in one or two days during the peak period of inflammation and once in three or four days before and after the peak period for ophthalmitis I and 3, 6, 12 and 24 hours after intravenous injection of BSA for ophthalmitis II.
(§3) Gross observation was made on the day after injection of BSA into the vitreous body and with the animals arranged in the decreasing order of severity of ocular inflammation, grouping was carried out in such a manner that the intensity distribution would be uniform over the groups. Thus, a physiological saline group of 7 animals, a 0.1% Compound [I] instillation group of 4 animals and a 0.5% Compound [I] instillation group of 5 animals were provided. After this grouping procedure, the test drugs and saline were respectively instilled into both eyes of the rabbits, 50 μl per dose, 4 times a day. For induction of ophthalmitis II, each drug was instilled into both eyes, 50 μl per dose, immediately after injection of BSA into the auricular vein and at 1-hour intervals thereafter, for a total of 14 times.

[3] = tested on: experimental ophthalmitis induced by bovine serum albumin in white rabbits (ophthalmitis I); test: Ophthalmitis I: protein, white blood cell count and prostaglandins in anterior chamber aqueous humor; assay type: in vivo; conditions: for Prostaglandin in anterior chamber aqueous humor: less than the assay limit; for Protein in anterior chamber aqueous humor / White Blood Cell count in anterior chamber aqueous humor: mean ± SE
Experimental: as §1, §2, §3

[4] = pH and osmolarity of ophthalmic solutions; assay type: physicochemical
[5] = tested on: experimental ophthalmitis induced by bovine serum albumin in white rabbits (ophthalmitis I); test: Anti-inflammatory effect in ophthalmitis I (bovine serum albumin injected into the vitreous), gross severity scores; assay type: in vivo; conditions: for Anterior chamber opacity, degree of inhibition relative to physiological saline group / Balbar conjunctival injection, degree of inhibition relative to physiological saline group / Corneal opacity, degree of inhibition relative to physiological saline group / Discharge, degree of inhibition relative to physiological saline group / External + Internal Grand Total Score, degree of inhibition relative to physiological saline group / External Segment Total Score, degree of inhibition relative to physiological saline group / Internal Segment Total Score, degree of inhibition relative to physiological saline group / Iridic injection, degree of inhibition relative to physiological saline group / Morphological change of iris, degree of inhibition relative to physiological saline group / Palpebral conjunctival edema, degree of inhibition relative to physiological saline group / Palpebral conjunctival injection, degree of inhibition relative to physiological saline group / Anterior chamber opacity score (Internal Segment) / Balbar conjunctival injection score (External Segment) / Corneal opacity score (External Segment) / Discharge score (External Segment) / External + Internal Grand Total Score / External Segment Total Score / Internal Segment Total Score / Iridic injection score (Internal Segment) / Morphological change of iris score (Internal Segment) / Palpebral conjunctival edema score (External Segment) / Palpebral conjunctival injection score (External Segment): ophthalmitis I; for Anterior chamber opacity score (Internal Segment) / Balbar conjunctival injection score (External Segment) / Corneal opacity score (External Segment) / Discharge score (External Segment) / External + Internal Grand Total Score / External Segment Total Score / Internal Segment Total Score / Iridic injection score (Internal Segment) / Morphological change of iris score (Internal Segment) / Palpebral conjunctival edema score (External Segment) / Palpebral conjunctival injection score (External Segment): peak inflammatory period of 3 days, mean ± SE
Experimental: as §1, §2
^(1) Hideyasu Yamauchi, Makoto Ingu, Tadashi Iso and Kozo Uda: Anti-inflammatory effect of fluorometholone ophthalmic solution in experimental uveitis in rabbits, Folia Ophthalmologica Japonica, 24: 969-79 (1973).
as §3

[6] = tested on: atropine-resistant miosis; test: Atropine-resistant miosis after paracentesis; assay type: in vivo, albino rabbits; conditions: for Miosis: 10 min after paracentesis
Experimental: The solutions of the following formulas were used.
Totally 28 male albino rabbits (4 rabbits×7 groups) with a body weight of about 2 kg werr used. They had been confirmed, before the experiment, to have mydriatic response to 1% atropine for at least 4 hours.
50 μl each of 1% atropine solution was instilled into both eyes of the animals one hour before the 1st paracenthesis, in which approx. 0.2 ml/eye of aqueous humor (primary aqueous humor) was collected. Topical application of 50 μl each of the test drug solutions was conducted 30 min before the paracenthesis. Pupil diameter of each eye was measured with a slide caliper immediately before and 10 min after the paracenthesis. The 2nd paracenthesis was conducted 90 min after the 1st one, in which approx. 0.2 ml/eye of aqueous humor (secondary aqueous humor) was collected.

[7] = tested on: carrageenin edema in rats; test: Carrageenin edema of the conjunctiva in rats; assay type: in vivo; conditions: 4 hours after carrageenin; for Weight of Edema: mean ± SE for 10 eyes
Experimental: 1. Sodium 3-(4-bromobenzoyl)-2-aminophenyl-acetate (hereinafter referred to as Compound [I])
2. Sodium 3-(4-chlorobenzoyl)-2-aminophenyl-acetate (hereinafter referred to as Compound [II])
3. Sodium 3-benzoyl-2-aminophenylacetate (hereinafter referred to as Compound [III])
Using female Wister rates weighing 100 g in groups of 5 animals or 10 eyes, 0.05 ml of 1% carrageenin (dissolved in physiological saline at 50° C.) as a phlogogen was injected beneath the conjuctiva of both eyes to induce edema. Physiological saline, as a control, and test drugs were respectively instilled into both eyes 40 and 20 minutes before and immediately after the injection of carrageenin, in the amount of 2.5 μl per dose. Four hours after the phlogogen treatment, each animal was sacrificed by cervical dislocation and in accordance with the method of Maistrello et al.^(2), the scalp was peeled off toward the eyelid and the edematous portion together with the skin was removed along the lid margin and weighed.
^(2) Maistrello et al.: Quantitative Effect of Topically Applied Anti-inflammatory Agents on External Ocular Inflammation in Rats: Journal of Pharmaceutical Science, volume 62, pp. 1455-60(1973).

With `Nc1c(CC(=O)[O-])cccc1C(=O)c1ccc(Br)cc1.O.[Na+]` [Compound [I], Sodium 3-(4-bromobenzoyl)-2-aminophenylacetate monohydrate] the “Decomposition of Compound [I]” value [1] was “the decomposition of Compound [I] was not observed either”, the “Prostaglandin in anterior chamber aqueous humor” value ([2]; 0.1%) was < 0.4 ng/mL and the “White Blood Cell count in anterior chamber aqueous humor” value (“White Blood Cell count” below) ([2]; 0.1%) was 1489 ± 499 Cells/mm^3. The “Prostaglandin in anterior chamber aqueous humor” value ([2]; 0.5%) was < 0.4 ng/mL, the “White Blood Cell count” value ([2]; 0.5%) was 1673 ± 277 Cells/mm^3 and the “Inhibition of prostaglandins in the aqueous humor” value ([3]; 0.1% and 0.5%) was “substantially complete inhibition of prostaglandins in the aqueous humor”. The “Prostaglandin in anterior chamber aqueous humor” value ([3]; 0.1%) was < 0.4 ng/mL, the “Protein in anterior chamber aqueous humor” value ([3]; 0.1%) was 48.7 ± 3.8 mg/Mml and the “White Blood Cell count” value ([3]; 0.1%) was 5593 ± 3436 Cells/mm^3. For the same molecule, the “Prostaglandin in anterior chamber aqueous humor” value ([3]; 0.5%) was < 0.4 ng/mL, the “Protein in anterior chamber aqueous humor” value ([3]; 0.5%) was 28.4 ± 1.6 mg/Mml and the “White Blood Cell count” value ([3]; 0.5%) was 1980 ± 654 Cells/mm^3. The “Osmolarity of ophthalmic solution” value ([4]; 0.1% ophthalmic solution) was 325 mOsm/kg·H2 O, the “pH value of ophthalmic solutions” value ([4]; 0.5% and 0.1% ophthalmic solutions) was 8.11 and the “Osmolarity of ophthalmic solution” value ([4]; 0.5% ophthalmic solution) was 310 mOsm/kg·H2 O. For the same molecule, the Osmotic pressure ([4]; Experimental Example 3 solutions 0.1-0.0001%, pH 8.0) was 310 mOsm/Kg.H2 O, the “Inhibition of ophthalmitis I for the external and the internal segment of the eye” value ([5]; 0.1% and 0.5%) was “potent and dose-dependent inhibition for both the external and the internal segment of the eye” and the “Anterior chamber opacity, degree of inhibition relative to physiological saline group” value ([5]; 0.1%) was -20.0%. The “Balbar conjunctival injection, degree of inhibition relative to physiological saline group” value ([5]; 0.1%) was 30.8%, the “Corneal opacity, degree of inhibition relative to physiological saline group” value ([5]; 0.1%) was 60.0% and the “Discharge, degree of inhibition relative to physiological saline group” value ([5]; 0.1%) was 100%. For the same molecule, the “External + Internal Grand Total Score, degree of inhibition relative to physiological saline group” value ([5]; 0.1%) was 41.8%, the “External Segment Total Score, degree of inhibition relative to physiological saline group” value ([5]; 0.1%) was 50.4% and the “Internal Segment Total Score, degree of inhibition relative to physiological saline group” value ([5]; 0.1%) was 32.6%. The “Iridic injection, degree of inhibition relative to physiological saline group” value ([5]; 0.1%) was 57.4%, the “Morphological change of iris, degree of inhibition relative to physiological saline group” value ([5]; 0.1%) was 34.1% and the “Palpebral conjunctival edema, degree of inhibition relative to physiological saline group” value ([5]; 0.1%) was 85.7%. For the same molecule, the “Palpebral conjunctival injection, degree of inhibition relative to physiological saline group” value ([5]; 0.1%) was 65.8%, the “Anterior chamber opacity score (Internal Segment)” value ([5]; 0.1%) was 3.6 ± 0.8 and the “Balbar conjunctival injection score (External Segment)” value ([5]; 0.1%) was 4.5 ± 0.6. For the same molecule, the “Corneal opacity score (External Segment)” value ([5]; 0.1%) was 1.0 ± 0.4, the “Discharge score (External Segment)” value ([5]; 0.1%) was 0 and the “External + Internal Grand Total Score” value ([5]; 0.1%) was 15.9 ± 1.8. For the same molecule, the “External Segment Total Score” value ([5]; 0.1%) was 6.8 ± 1.0, the “Internal Segment Total Score” value ([5]; 0.1%) was 9.1 ± 1.0 and the “Iridic injection score (Internal Segment)” value ([5]; 0.1%) was 2.6 ± 0.2. The “Morphological change of iris score (Internal Segment)” value ([5]; 0.1%) was 2.9 ± 0.4, the “Palpebral conjunctival edema score (External Segment)” value ([5]; 0.1%) was 0.1 ± 0.1 and the “Palpebral conjunctival injection score (External Segment)” value ([5]; 0.1%) was 1.3 ± 0.2. The “Anterior chamber opacity, degree of inhibition relative to physiological saline group” value ([5]; 0.5%) was 33.3%, the “Balbar conjunctival injection, degree of inhibition relative to physiological saline group” value ([5]; 0.5%) was 74.5% and the “Corneal opacity, degree of inhibition relative to physiological saline group” value ([5]; 0.5%) was 48.0%. For the same molecule, the “Discharge, degree of inhibition relative to physiological saline group” value ([5]; 0.5%) was 100%, the “External + Internal Grand Total Score, degree of inhibition relative to physiological saline group” value ([5]; 0.5%) was 63.0% and the “External Segment Total Score, degree of inhibition relative to physiological saline group” value ([5]; 0.5%) was 74.5%. For the same molecule, the “Internal Segment Total Score, degree of inhibition relative to physiological saline group” value ([5]; 0.5%) was 51.1%, the “Iridic injection, degree of inhibition relative to physiological saline group” value ([5]; 0.5%) was 70.5% and the “Morphological change of iris, degree of inhibition relative to physiological saline group” value ([5]; 0.5%) was 34.1%. The “Palpebral conjunctival edema, degree of inhibition relative to physiological saline group” value ([5]; 0.5%) was 100%, the “Palpebral conjunctival injection, degree of inhibition relative to physiological saline group” value ([5]; 0.5%) was 36.8% and the “Anterior chamber opacity score (Internal Segment)” value ([5]; 0.5%) was 2.0 ± 0.4. The “Balbar conjunctival injection score (External Segment)” value ([5]; 0.5%) was 1.6 ± 0.2, the “Corneal opacity score (External Segment)” value ([5]; 0.5%) was 0.4 ± 0.2 and the “Discharge score (External Segment)” value ([5]; 0.5%) was 0. For the same molecule, the “External + Internal Grand Total Score” value ([5]; 0.5%) was 10.1 ± 1.0, the “External Segment Total Score” value ([5]; 0.5%) was 3.5 ± 0.4 and the “Internal Segment Total Score” value ([5]; 0.5%) was 6.6 ± 0.8. The “Iridic injection score (Internal Segment)” value ([5]; 0.5%) was 1.8 ± 0.2, the “Morphological change of iris score (Internal Segment)” value ([5]; 0.5%) was 2.9 ± 0.4 and the “Palpebral conjunctival edema score (External Segment)” value ([5]; 0.5%) was 0. For the same molecule, the “Palpebral conjunctival injection score (External Segment)” value ([5]; 0.5%) was 1.5 ± 0.3, the “Inhibitory activity on miosis after paracentesis” value ([6]; Compound [I] 0.0001-0.1%, indomethacin as high as 0.5%) was “dose-related inhibitory activity on miosis after paracentesis” and the “Inhibition (miosis)” value ([6]; content 0.0001%) was 9.2 ± 8.33%. For the same molecule, the Miosis ([6]; content 0.0001%) was 21.5 ± 1.97%, the “Inhibition (miosis)” value ([6]; content 0.001%) was 19.7 ± 6.08% and the Miosis ([6]; content 0.001%) was 19.0 ± 1.44%. For the same molecule, the “Inhibition (miosis)” value ([6]; content 0.01%) was 35.2 ± 6.75%, the Miosis ([6]; content 0.01%) was 15.4 ± 1.60% and the “Inhibition (miosis)” value ([6]; content 0.1%) was 24.9 ± 16.4%. For the same molecule, the Miosis ([6]; content 0.1%) was 17.4 ± 3.80%, the “Degree of inhibition (carrageenin edema)” value ([7]; 1.0%) was 16.9% and the “Weight of Edema” value ([7]; 1.0%) was 43.93 ± 4.138 mg. For the same molecule, the “Degree of inhibition (carrageenin edema)” value ([7]; 2.5%) was 31.3% and the “Weight of Edema” value ([7]; 2.5%) was 36.323 ± 3.308 mg.
